Data published in ChEMBL document CHEMBL3507680, “University of Dundee, Gates Library screen for HepG2 cell viability”.

Assay: Human HepG2 cell viability assay in 384 well format
Format: toxicity, cell-based
Parameters: dose 125 nL, time 70.5 hour; concentration not given beside the values
Conditions: HepG2 cells, read-out: Inhibition

| SMILES | cytotoxicity at 70.5 h [%] |
| --- | --- |
| CC1CCN(c2ccc(=O)n(CC(=O)N(C)Cc3ccccc3)n2)CC1 | 16.3 |
| Cc1nnc(N2C[C@H](OCc3cccnc3)[C@H]3OCCC[C@H]32)s1 | 10 |
| O=C(C1CCCOC1)N1CCCc2ccccc21 (stereo unspecified) | -4.78 |
| Cc1nnc(N2CC[C@H]3C[C@@H](C(=O)NC4CCCC4)O[C@H]3C2)s1 | 27 |
| Nc1ccc(-c2ccc(F)cc2Cl)cn1 | -8.38 |
| Cc1cnc(NC(=O)c2ccc(C3CCCN3CC(C)C)s2)s1 (stereo unspecified) | -5.46 |
| CN(CC(=O)NCc1ccccn1)C1CCCN(c2cccnn2)C1 (stereo unspecified) | 0.301 |
| CC1(C)CN(C(=O)c2ccc3nncn3c2)CCS1 | -5.72 |
| Cc1cnn(CC2CCCCN2CC(=O)Nc2c(C)n[nH]c2C)c1 (stereo unspecified) | -5.21 |
| O=C(CCOCC(F)(F)F)N1CCCC1c1noc(C2CC2)n1 (stereo unspecified) | -8.98 |
| O=C(CCn1c(C(F)F)cc2cccnc21)NC1CC1 | -5.74 |
| COc1ccc(OC)c(CN(Cc2ccco2)Cc2[nH]cnc2C)c1 | -10.2 |
| Cc1ccc(C(=O)Nc2cc(F)ccc2OCC2CCCO2)cn1 (stereo unspecified) | -3.09 |
| c1ccc(Cc2noc(-c3ccc(NCC4CCCOC4)nc3)n2)cc1 (stereo unspecified) | -2.44 |
| CC(C)CN1C(=O)CO[C@@H]2CN(C(=O)[C@H]3CCCO3)C[C@H]21 | -1.2 |
| c1ccc(NCc2cn3c(n2)CN(Cc2cccs2)CC3)nc1 | 8.31 |
| C/C=C(\C)CN1C[C@H](NC(=O)c2cc[nH]c2C)[C@@H](C2CC2)C1 | 10.6 |
| CCc1nccn1CC1CCCN1S(=O)(=O)N1CCCOCC1 (stereo unspecified) | 23.7 |
| CN(CC1CCN(CCO)CC1)CC(O)c1ccc(F)cc1 (stereo unspecified) | -5.05 |

| SMILES | cytotoxicity at 70.5 h [%] |
| --- | --- |
| CC(=O)N1CCC(c2cc(Nc3ncccn3)nc(C)n2)C1 (stereo unspecified) | -6.88 |
| COc1ccc(C(CN2CCN(C)CC2)Nc2ncccn2)cc1 (stereo unspecified) | 0.96 |
| Cc1cccc(NC(=O)CN(C)C(=O)c2scnc2C)n1 | 0.715 |
| CC(C)COC(=O)N1CC(=O)N(Cc2ccc(Cl)cc2)CC(O)C1 (stereo unspecified) | -3.08 |
| CC(C)(C)NC[C@@H]1CCC[C@@H]2CN(Cc3csnn3)C[C@@H]21 | -2.73 |
| O=C(NCc1csc(-c2cccs2)n1)C1NCCc2[nH]cnc21 (stereo unspecified) | -19.8 |
| CN1CCCN(C(=O)c2nc3c(o2)CN(S(C)(=O)=O)C3)CC1 | -14.5 |
| COc1ccc(CNCc2cc(Br)c3c(c2)OCO3)cc1 | -3.3 |
| CC(C)N1CC2(CCCN(c3ccnc4ccccc34)C2)CCC1=O (stereo unspecified) | -0.494 |
| CCn1ccnc1C1CCN(Cc2c(F)cccc2F)CC1 | 3.09 |
| COC(=O)N1CCCC(C(=O)NCCc2c[nH]c3cc(C)ccc23)C1 (stereo unspecified) | -10.8 |
| Cn1cc(CN2CCC3(CC2)CC(=O)Nc2ccccc23)cn1 | -1.78 |
| CS(=O)(=O)NCc1ccc(C(=O)NCc2ccc3c(c2)CCC3)o1 | -7.15 |
| CNC(=O)C1(C)CN(Cc2cn(C)c3ccc(F)cc23)CCO1 (stereo unspecified) | -9.03 |
| Cc1occc1C(=O)Nc1ccc(C(=O)NC[C@H]2CCCN2)cc1 | 7 |
| COCCNC(=O)N1CC(Cc2ccccc2F)C1 | -4.03 |
| C[S+]([O-])c1nncn1CCc1ccccc1 (stereo unspecified) | 17.1 |
| O=C1COC2(CCN(Cc3ccco3)CC2)CN1 | -7.36 |
| Cc1cc(NC(=O)CN2CCN(c3nccs3)C(C)C2)on1 (stereo unspecified) | -6.15 |

| SMILES | cytotoxicity at 70.5 h [%] |
| --- | --- |
| COC(=O)[C@@H]1Cc2ncn(C)c2CN1S(=O)(=O)Cc1ccccc1 | -2.85 |
| Cc1cc2[nH]c(O)nc2cc1NCc1ccccc1 | -12.7 |
| COc1nc(N2CCNCC2)ncc1Br | -9.1 |
| CC(C)Cc1noc(CN2CCCC(CNS(N)(=O)=O)C2)n1 (stereo unspecified) | -3.24 |
| CCN(CC)Cc1ccccc1NCc1c(C)noc1C | -0.774 |
| Nc1cc(CCCNC(=O)NC2CCCC2)nn1-c1ccccc1 | -102 |
| CCN(CC)C(=O)c1ccc(COc2ccccc2C#N)o1 | -9.63 |
| Cc1cc2nc(SCC(=O)N3CCOCC3)n(C(C)C)c(=O)c2[nH]1 | -5.42 |
| Cc1cnc(N2C[C@@H]3[C@@H](C(=O)NC(C)C)CCS(=O)(=O)[C@@H]3C2)nc1 | 18 |
| CN1CCN(C(=O)C2CC=CC2)c2ccccc21 | 9.41 |
| Cc1ncc2c(c1CNC(=O)C1(c3ccc(F)cc3)CC1)CCNC2 | -5.4 |
| O=C(NCCNS(=O)(=O)c1ccc2c(c1)CCCC2)c1ccoc1 | -8.42 |
| Cn1c(-c2ccccc2Cl)nc2cc(C(=O)NCC3(CO)CC3)cnc21 | -10 |
| COc1cnc(C2(O)CCN(C(=O)c3scnc3C)CC2)c(OC)n1 | 6.58 |
| CC(C)(C)C(=O)NCc1nccn1CCc1ccccc1 | -5.7 |
| Cc1noc(-c2ccnc(N3CCN(C4CCOCC4)CC3)c2)n1 | 10.1 |
| CCc1cnc(N2CCC3(CC(=O)N(Cc4csc(C)n4)C3)C2)nc1 (stereo unspecified) | -12 |
| CN1CCCCC12CCN(c1nncs1)CC2 | 1.8 |
